From patent US4656165A, “Aminomethyl penem compounds” (priority 1983, dated 1987)
≈ marks a conversion by molar mass, not a printed value.

Columns and labels:
[1] = system: Proteus morganii 1518; test: Antibiotic activity in vitro (MIC); format: cell-based; conditions: Morganella morganii
[2] = system: Escherichia coli 205; test: Antibiotic activity in vitro (MIC); format: cell-based
[3] = system: Staphylococcus aureus Wood 46; test: Antibiotic activity in vitro (MIC); format: cell-based; conditions: WOOD46
[4] = system: Enterobacter cloacae ATCC 13047; test: Antibiotic activity in vitro (MIC); format: cell-based; conditions: ATCC13047
[5] = system: Clostridium perfringens; test: microbe, parasite or virus in culture; format: cell-based; conditions: read-out: in vitro MIC
[6] = system: Escherichia coli 205 R + TEM; test: Antibiotic activity in vitro (MIC); format: cell-based; conditions: read-out: in vitro MIC
[7] = system: Pseudomonas aeruginosa ATCC 12055; test: Antibiotic activity in vitro (MIC); format: cell-based; conditions: ATCC12055
[8] = system: Escherichia coli B-1385; test: Antibiotic activity in vitro (MIC); format: cell-based; conditions: B1385
[9] = system: Proteus morganii 2359; test: Antibiotic activity in vitro (MIC); format: cell-based; conditions: Morganella morganii
[10] = system: Haemophilus influenzae NCTC 4560; test: Antibiotic activity in vitro (MIC); format: cell-based; conditions: NCTC4560
[11] = system: Pseudomonas aeruginosa 143738R; test: Antibiotic activity in vitro (MIC); format: cell-based
[12] = system: Staphylococcus aureus 2999i+p+; test: Antibiotic activity in vitro (MIC); format: cell-based
[13] = system: Serratia marcescens 344; test: Antibiotic activity in vitro (MIC); format: cell-based
[14] = system: Escherichia coli DC 2; test: Antibiotic activity in vitro (MIC); format: cell-based; conditions: DC2
[15] = system: Proteus mirabilis 1219; test: Antibiotic activity in vitro (MIC); format: cell-based
[16] = system: Streptococcus pyogenes Aronson 1129; test: Antibiotic activity in vitro (MIC); format: cell-based; conditions: ARONSON1129
[17] = system: Pseudomonas aeruginosa K 799/61; test: Antibiotic activity in vitro (MIC); format: cell-based; conditions: K799/61, read-out: in vitro MIC
[18] = target: T1, dehydropeptidase from human kidneys (Homo sapiens, UniProt P16444); test: Stability towards the enzyme dehydropeptidase from human kidneys; format: in vitro ADME; conditions: for half-life: renal dehydropeptidase, enzyme dehydropeptidase from human kidneys, read-out: t1/2 (half-life period), stability towards dehydropeptidase (converted); for half-life period under the action of renal dehydropeptidase compared with compound B: comparison with the racemate compound B, in words
T1 construct: dehydropeptidase from human kidneys; from tissue; host or cells: human kidneys
T1 sequence (P16444 17-411): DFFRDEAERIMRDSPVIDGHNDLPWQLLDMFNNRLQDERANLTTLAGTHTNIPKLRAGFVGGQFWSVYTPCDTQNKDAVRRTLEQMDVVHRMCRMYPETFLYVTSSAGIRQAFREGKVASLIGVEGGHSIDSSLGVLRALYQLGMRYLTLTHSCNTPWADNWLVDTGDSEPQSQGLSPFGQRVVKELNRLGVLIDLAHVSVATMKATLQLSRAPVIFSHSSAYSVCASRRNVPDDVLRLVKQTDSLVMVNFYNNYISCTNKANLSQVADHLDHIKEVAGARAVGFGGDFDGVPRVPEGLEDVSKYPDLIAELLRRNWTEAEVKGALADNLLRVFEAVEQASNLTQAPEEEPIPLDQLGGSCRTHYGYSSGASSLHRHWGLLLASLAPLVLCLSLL
From the text: The stability of compounds A, B and C towards the enzyme dehydropeptidase from human kidneys is as follows (expressed in half-life periods t1/2): […]

[19] = system: Escherichia coli 16; test: Antibiotic activity in vitro (MIC); format: cell-based
[20] = system: Streptococcus pneumoniae III/84; test: Antibiotic activity in vitro (MIC); format: cell-based
[21] = system: Enterobacter cloacae P 99; test: Antibiotic activity in vitro (MIC); format: cell-based; conditions: P99, read-out: in vitro MIC
[22] = system: Proteus rettgeri 856; test: Antibiotic activity in vitro (MIC); format: cell-based; conditions: Providencia rettgeri
[23] = system: Escherichia coli 2018; test: Antibiotic activity in vitro (MIC); format: cell-based
[24] = system: Klebsiella pneumoniae 327; test: Antibiotic activity in vitro (MIC); format: cell-based
[25] = system: Bacteroides fragilis L 01; test: Antibiotic activity in vitro (MIC); format: cell-based; conditions: L01
[26] = system: Proteus mirabilis 774; test: Antibiotic activity in vitro (MIC); format: cell-based
[27] = system: Neisseria meningitidis 1316; test: Antibiotic activity in vitro (MIC); format: cell-based
[28] = system: Staphylococcus aureus 10 B; test: Antibiotic activity in vitro (MIC); format: cell-based
[29] = system: Escherichia coli UB 1005; test: Antibiotic activity in vitro (MIC); format: cell-based; conditions: UB1005
[30] = system: Staphylococcus aureus A 124; test: Antibiotic activity in vitro (MIC); format: cell-based; conditions: A124
[31] = system: Neisseria gonorrhoeae 1317/4; test: Antibiotic activity in vitro (MIC); format: cell-based

SMILES	MIC [1] [µg/mL]	MIC [2] [µg/mL]	MIC [3] [µg/mL]	MIC [4] [µg/mL]	MIC [5] [µg/mL]	MIC [6] [µg/mL]	MIC [7] [µg/mL]	MIC [8] [µg/mL]	MIC [9] [µg/mL]	MIC [10] [µg/mL]	MIC [11] [µg/mL]	MIC [12] [µg/mL]	MIC [13] [µg/mL]	MIC [14] [µg/mL]	MIC [15] [µg/mL]	MIC [16] [µg/mL]	MIC [17] [µg/mL]	MIC [19] [µg/mL]	MIC [20] [µg/mL]	MIC [21] [µg/mL]	also measured
C[C@@H](O)[C@H]1C(=O)N2C(C(=O)O)=C(CN)S[C@H]12 (relative stereo) [compound B, (1'R,5R,6S+1'S,5S,6R)-2-aminomethyl-6-(1'hydroxyethyl) -2-penem-3-carboxylic acid, reference compound]	4 (≈ 16.4 µM)	8 (≈ 32.8 µM)	0.1 (≈ 0.409 µM)	16 (≈ 65.5 µM)	4 (≈ 16.4 µM)	8 (≈ 32.8 µM)	0.1 (≈ 0.409 µM)	8 (≈ 32.8 µM)	2 (≈ 8.19 µM)	2 (≈ 8.19 µM)	2 (≈ 8.19 µM)	0.2 (≈ 0.819 µM)	8 (≈ 32.8 µM)	16 (≈ 65.5 µM)	8 (≈ 32.8 µM)	0.5 (≈ 2.05 µM)	0.2 (≈ 0.819 µM)	8 (≈ 32.8 µM)	0.2 (≈ 0.819 µM)	8 (≈ 32.8 µM)	half-life [18]: 2.2 h; MIC [22]: 1 µg/mL (≈ 4.09 µM); MIC [23]: 4 µg/mL (≈ 16.4 µM); MIC [24]: 4 µg/mL (≈ 16.4 µM); MIC [25]: 1 µg/mL (≈ 4.09 µM); MIC [26]: 4 µg/mL (≈ 16.4 µM); MIC [27]: 1 µg/mL (≈ 4.09 µM); MIC [28]: 0.1 µg/mL (≈ 0.409 µM); MIC [29]: 16 µg/mL (≈ 65.5 µM); MIC [30]: 0.2 µg/mL (≈ 0.819 µM); MIC [31]: 1 µg/mL (≈ 4.09 µM)
C[C@@H](O)[C@H]1C(=O)N2C(C(=O)O)=C(CN)S[C@H]12 [compound A, (5R,6S)-2-aminomethyl-6-[(1'R)-1-hydroxyethyl]-2-penem-3-carboxylic acid]	2 (≈ 8.19 µM)	2 (≈ 8.19 µM)	0.05 (≈ 0.205 µM)	4 (≈ 16.4 µM)	2 (≈ 8.19 µM)	4 (≈ 16.4 µM)	0.05 (≈ 0.205 µM)	4 (≈ 16.4 µM)	0.5 (≈ 2.05 µM)	1 (≈ 4.09 µM)	0.5 (≈ 2.05 µM)	0.05 (≈ 0.205 µM)	4 (≈ 16.4 µM)	8 (≈ 32.8 µM)	2 (≈ 8.19 µM)	0.2 (≈ 0.819 µM)	0.1 (≈ 0.409 µM)	4 (≈ 16.4 µM)	0.1 (≈ 0.409 µM)	4 (≈ 16.4 µM)	half-life period under the action of renal dehydropeptidase compared with compound B [18]: considerably greater half-life period; MIC [22]: 0.5 µg/mL (≈ 2.05 µM); MIC [23]: 2 µg/mL (≈ 8.19 µM); MIC [24]: 2 µg/mL (≈ 8.19 µM); MIC [25]: 0.5 µg/mL (≈ 2.05 µM); MIC [26]: 1 µg/mL (≈ 4.09 µM); MIC [27]: 0.5 µg/mL (≈ 2.05 µM); MIC [28]: 0.05 µg/mL (≈ 0.205 µM); MIC [29]: 4 µg/mL (≈ 16.4 µM); MIC [30]: 0.1 µg/mL (≈ 0.409 µM); MIC [31]: 0.5 µg/mL (≈ 2.05 µM)
NCC1=C(C(=O)O)N2C(=O)[C@H](CO)[C@H]2S1 [compound C, (5R,6S)-2-aminomethyl-6-hydroxymethyl-2-penem-3-carboxylic acid]	2 (≈ 8.69 µM)	1 (≈ 4.34 µM)	0.2 (≈ 0.869 µM)	4 (≈ 17.4 µM)	32 (≈ 139 µM)	2 (≈ 8.69 µM)	0.2 (≈ 0.869 µM)	2 (≈ 8.69 µM)	1 (≈ 4.34 µM)	1 (≈ 4.34 µM)	2 (≈ 8.69 µM)	0.5 (≈ 2.17 µM)	2 (≈ 8.69 µM)	4 (≈ 17.4 µM)	4 (≈ 17.4 µM)	2 (≈ 8.69 µM)	0.5 (≈ 2.17 µM)	2 (≈ 8.69 µM)	0.5 (≈ 2.17 µM)	4 (≈ 17.4 µM)	half-life period under the action of renal dehydropeptidase compared with compound B [18]: considerably greater half-life period; half-life [18]: 5.5 h; MIC [22]: 0.5 µg/mL (≈ 2.17 µM); MIC [23]: 1 µg/mL (≈ 4.34 µM); MIC [24]: 1 µg/mL (≈ 4.34 µM); MIC [25]: 2 µg/mL (≈ 8.69 µM); MIC [26]: 1 µg/mL (≈ 4.34 µM); MIC [27]: 1 µg/mL (≈ 4.34 µM); MIC [28]: 0.2 µg/mL (≈ 0.869 µM); MIC [29]: 2 µg/mL (≈ 8.69 µM); MIC [30]: 1 µg/mL (≈ 4.34 µM); MIC [31]: 1 µg/mL (≈ 4.34 µM)
